Laboratory results published in PMC10584170, “Machine learning-based phenotypic imaging to characterise the targetable biology of Plasmodium falciparum male gametocytes for the development of transmission-blocking antimalarials” (PLOS Pathogens, 2023).

Columns and labels:
[1] = test system: P. falciparum male gametocytes; assay: P. falciparum Dual Gamete Formation Assay (PfDGFA), male readout (exflagellation); type: cell-based, Plasmodium falciparum NF54; conditions: for Average inhibition male (%): average of replicates; for % inhibition male (individual replicates) R1: replicate R1; for % inhibition male (individual replicates) R3: replicate R3; for % inhibition male (individual replicates) R4: replicate R4; for Activity: hit = >50% inhibition in male or female readout in at least 3 replicates, 0 = no class assigned
Procedure, shortened: (§1)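 NF54 mature gametocytes (d14), cpd 24 h 37°C hypoxic gas; trigger: xanthurenic acid ookinete medium + Cy3 anti-Pfs25, 4°C 4 min → 28°C 4 min. Male: exflagellation centres, brightfield x6. Female: Pfs25+ gametes, fluorescence, +24 h 28°C dark.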

[2] = test system: P. falciparum female gametocytes; assay: P. falciparum Dual Gamete Formation Assay (PfDGFA), female readout (Pfs25-positive female gametes); type: cell-based, Plasmodium falciparum NF54; conditions: for Average inhibition female (%): average of replicates; for % inhibition female (individual replicates) R1: replicate R1; for % inhibition female (individual replicates) R3: replicate R3; for % inhibition female (individual replicates) R4: replicate R4
Procedure, shortened: as §1

[3] = 2µM, 24h preincubation with gametocytes prior to induction of gametogenesis
[4] = 2µM, 24h preincubation, hits selected on >50% inhibition in the male readout across replicates
[5] = PfDGFA at 2µM, 24h preincubation
[6] = 2µM, 24h preincubation, hits selected on >50% inhibition in the female readout across replicates
[7] = 2µM, 24h preincubation, number of replicates with >50% inhibition in the male readout
[8] = 2µM, 24h preincubation, number of replicates with >50% inhibition in the female readout
[9] = PfDGFA at 2µM, 24h preincubation with gametocytes prior to induction of gametogenesis

SMILES | Average inhibition male (%) [1, 3] [%] | % inhibition male (individual replicates) R1 [1, 3] [%] | % inhibition male (individual replicates) R3 [1, 3] [%] | % inhibition male (individual replicates) R4 [1, 3] [%] | HitlevelM [1, 4] | Activity [1, 5] | Average inhibition female (%) [2, 3] [%] | % inhibition female (individual replicates) R1 [2, 3] [%] | % inhibition female (individual replicates) R3 [2, 3] [%] | % inhibition female (individual replicates) R4 [2, 3] [%] | HitlevelF [2, 6] | other results
Cc1[nH]cc(Br)c(=O)c1-c1ccc(Oc2ccc(OC(F)(F)F)cc2)cc1 [TCMDC-136197] | -14.5 | -14.1 | -25.2 | -5.8 | 0 | 0 | 8.0 | 22.6 | 0.02 | -5.7 | 0 | 
Cl.c1ccc2c(C3CCN(CCCCOc4ccc5c(c4)CCN(CC4CC4)CC5)CC3)c[nH]c2c1 [TCMDC-136244] | 8.5 | 7.6 | -1.4 | 14.2 |  |  | 24.9 | 21.4 | 5.1 | 24.5 |  | HitlevelM [1, 7]: 0; HitlevelF [2, 8]: 0
Cc1ccc(-n2c(C)nc3c(Nc4ccc(-c5ccncc5)cc4)ncnc32)c(C)c1 [TCMDC-136289] | 51.6 | 92.5 |  | -28.8 | 2 | 0 | 6.8 | 7.7 | 15.7 | 3.5 | 0 | 
CN(C)CCCNCc1cn(S(=O)(=O)c2ccccc2Cl)c2ccccc12.Cl [TCMDC-136302] | 39.6 | 57.4 | 42.5 | 62.3 |  |  | 50.5 | 52.5 | 48.5 | 54.4 |  | HitlevelM [1, 7]: 2; HitlevelF [2, 8]: 2
COc1ccc(CNC(=O)c2cnc3cc(-c4c(C)noc4C)ccc3c2Nc2ccccc2C(C)(C)C)cc1.Cl [TCMDC-136367] |  |  |  |  |  |  |  |  |  |  |  | % inhibition male (individual replicates) R1 [1, 9]: -0.3%; % inhibition male (individual replicates) R4 [1, 9]: -17.2%; Average inhibition male (%) [1, 5]: -9.5%; % inhibition female (individual replicates) R1 [2, 9]: -1.1%; % inhibition female (individual replicates) R3 [2, 9]: -0.6%; % inhibition female (individual replicates) R4 [2, 9]: 13.4%; Average inhibition female (%) [2, 5]: 2.7%
COc1cc(Br)c(S(=O)(=O)n2cc(CN3CCC(N)CC3)c3cc(Cl)ccc32)cc1OC.O=C(O)C(F)(F)F [TCMDC-136384] | 17.6 | 5.7 | -10.3 | 29.6 | 0 | 0 | 13.1 | 17.7 | 22.3 | -2.1 | 0 | 
COc1cc(C(=O)N2CCN(C(C)C)CC2)ccc1CN(C)CCCCN1CCN(c2cccc(Cl)c2Cl)CC1.Cl [TCMDC-136506] | 24.1 | 21.0 | -5.5 | 30.9 | 1 | 0 | 13.2 | 17.9 | 17.6 | 12.7 | 0 | 
CN(C)Cc1c(O)ccc2[nH]c(-c3cccc(F)c3)nc12 [TCMDC-136535] |  |  |  |  |  |  |  |  |  |  |  | % inhibition male (individual replicates) R1 [1, 9]: -6.0%; % inhibition male (individual replicates) R3 [1, 9]: -26.3%; % inhibition male (individual replicates) R4 [1, 9]: 8.9%; Average inhibition male (%) [1, 5]: -3.8%; % inhibition female (individual replicates) R1 [2, 9]: 14.3%; % inhibition female (individual replicates) R3 [2, 9]: -20.0%; % inhibition female (individual replicates) R4 [2, 9]: -2.1%; Average inhibition female (%) [2, 5]: -3.2%
